Consider one molecule from patent publication US12103939B2, “Solid pharmaceutical gold-based composition” (KING FAHD UNIVERSITY OF PETROLEUM AND MINERALS, priority 2019, dated 2024).

Common to all, as to type: cell-based, human
The test system of data set [1] is A549 lung cancer cell line. Briefly: Cytotoxicity assay (MTT, 72 h). The settings on record: A549, MTT after 72 h, mean (SD); read-out: Half-maximal inhibitory concentration (IC50). The procedure: (§1) R-ME-180 and A2780cis cells were maintained in 1 μM cisplatin. Adipose-derived stromal cells were maintained in MSCGM BulletKit medium (Lonza). All cell lines were cultured at 37° C. in a 5% CO2, fully humidified atmosphere
(§2) Cell lines were seeded in 96-well flat-bottomed microplates in 100 μL culture medium at the following densities: DU145, PC3 and MCF-7 cells (2.5×10^3 cells/well); A2780, A2780cis, ME-180, R-ME-180 and A549 cells (4.0×10^3 cells/well); and MG-63 cells (2.0×10^3 cells/well). Cells were allowed to adhere for 24 h. Then the medium was replaced with fresh medium alone or with one of the gold(III) complexes at increasing concentrations from 0 to 100 μM. The reference drugs cisplatin (0-100 μM) and doxorubicin (0-1 μM) were included as positive controls for growth inhibition. After 72 h, cell viability was assayed using the MTT assay.
(§3) See Chou T. C.; Talalay P. Quantitative analysis of dose-effect relationships: the combined effects of multiple drugs or enzyme inhibitors. […] 22, 27-55, incorporated herein by reference in its entirety. IC50 values were reported as mean (SD). For drug-resistance cell lines, fold resistance (FR) was calculated as the ratio of the IC50 of the resistant cell line to the IC50 of the parental cell line.

The subject of data set [2] is DU145 prostate cancer cell line. Briefly: Cytotoxicity assay (MTT, 72 h). The conditions noted are these: DU145, MTT after 72 h, mean (SD); read-out: Half-maximal inhibitory concentration (IC50). The procedure:
as §1, §2, §3

Data set [3] deals with MCF-7 breast cancer cell line. As to the kind of experiment: Cytotoxicity assay (MTT, 72 h). The conditions noted are these: MCF-7, MTT after 72 h, mean (SD); read-out: Half-maximal inhibitory concentration (IC50). As for the experimental part:
as §1, §2, §3

The subject of data set [4] is MG-63 osteosarcoma cell line. As to the kind of experiment: Cytotoxicity assay (MTT, 72 h). The settings on record: MG63, MTT after 72 h, mean (SD); read-out: Half-maximal inhibitory concentration (IC50). As for the experimental part:
as §1, §2, §3

The test system of data set [5] is PC3 prostate cancer cell line. Briefly: Cytotoxicity assay (MTT, 72 h). The settings on record: PC3, MTT after 72 h, mean (SD); read-out: Half-maximal inhibitory concentration (IC50). As for the experimental part:
as §1, §2, §3

Data set [6] deals with cisplatin- and doxorubicin-resistant A2780cis clone. Briefly: Cytotoxicity assay (MTT, 72 h). The procedure:
as §1, §2, §3

Data set [7] deals with cisplatin-resistant R-ME-180 clone. As to the kind of experiment: Cytotoxicity assay (MTT, 72 h). As for the experimental part:
as §1, §2, §3

The subject of data set [8] is PC3 cells. Briefly: Cellular uptake of gold(III) complexes (ICP-MS). The conditions noted are these: 3 μM, 2 h, ICP mass spectrometry. The procedure: After treatment, monolayers were washed with ice-cold PBS four times, and the cells were detached with trypsin-EDTA and washed three times with ice-cold PBS by centrifugation. The cell pellet was solubilized in 700 μL of HNO3—HCl solution (1:3 molar ratio) for 2 h at 100° C., and then diluted with 4 mL water. Samples were analyzed for gold on an Agilent 7500 inductively coupled plasma mass spectrometer (ICP-MS). Results were expressed as ng gold/10^6 cells. The experiment was performed a total of two times and the results were expressed as mean and SD.

As to `CC[N+](CC)=C1[S][Au-]2([S]1)[n+]1ccc[n+]3c1-c1[n+]2ccc[n+]1[Au-]31[S]C(=[N+](CC)CC)[S]1.[Cl-].[Cl-].[Cl-].[Cl-]` [C7, [Au2(BPM)(DEDTC)2]Cl4], the IC50 in data set [1] stood at 1400 nM; in data set [2] it was 800 nM; in data set [3], 600 nM; in data set [4], 700 nM; in data set [5] it was 800 nM; in data set [6] (A2780cis, MTT after 72 h, mean (SD)), 300 nM. This molecule came in with an IC50 in data set [7] (R-ME-180, MTT after 72 h, mean (SD)) of 4100 nM. For the same molecule, the “FR (A2780cis/A2780), fold resistance” value in data set [6] (IC50 A2780cis / IC50 A2780) is given as 0.9. Further, the “FR (R-ME-180/ME-180), fold resistance” value in data set [7] (IC50 R-ME-180 / IC50 ME-180) turned out to be 0.9. The “amount of internalized gold (cellular uptake)” value in data set [8] was “greater uptake”.
